# Laboratory results as given in publication PMC7561186, “Rational design of balanced dual-targeting antibiotics with limited resistance” (PLoS Biology, 2020).
# Where “and” joins values, the source holds several entries; their conditions need not be identical. Equal values may be shown once. Read-outs that look alike come from different tables or passages of the source.
# Legend:
# [1] = tested on: HepG2 cells; details: LDH assay
# Experimental: Cytotoxicity of compounds on HepG2 and MCF-7 mammalian cell lines was determined by using a standard LDH assay. Briefly, HepG2 and MCF-7 cells were cultured in Eagle’s MEM medium (from Gibco) supplemented with 2 mM L-glutamine (Sigma), 100 U/mL penicillin (Sigma), and 100 μg/mL streptomycin (Sigma), and 10% FBS (Gibco) at 37 °C and under 5% CO2. Next, LDH assays were performed according to manufacturer instructions (Thermo Fisher Scientific, Massachusetts, USA). By using a CyQUANT LDH Cytotoxicity Assay Kit. Firstly, the cells were seeded in 96-well microtiter plates at 10^5 cells/mL (100 μL/well) and allowed to attach overnight. […] Lysis buffer (10 μL, Thermo Fisher Scientific) was then added to the maximal LDH activity control wells and incubated additional 45 minutes. The cell culture supernatant (50 μL) was then transferred to a new 96-well plate and mixed with 50 μL of the reaction mixture. After 30 minutes on room temperature, reactions were stopped with 50 μL of the Stop solution. Absorbance (490 nm and 680 nm) was measured with the automatic microplate reader Synergy 4 Hybrid Microplate Reader (BioTek, VT, USA). All experiments were performed in triplicates and repeated 3 times. Statistical significance (P < 0.05) was calculated with 2-tailed Welch’s t-test between treated groups and DMSO. The percentage of cytotoxicity was determined according to the following equation: %Cytotoxicity=(CompoundtreatedLDHactivity-SpontaneousLDHactivity/MaximumLDHactivity-SpontaneousLDHactivity)*100
# [2] = tested on: Clostridium difficile; assay: MIC, broth microdilution (CLSI); type: cell-based
# Experimental: (§1) MICs were determined using a standard serial broth microdilution technique according to the CLSI guidelines. Briefly, bacterial strains were inoculated onto MHBII agar plates and were grown overnight at 37 °C. Next, 3 individual colonies from each strain were inoculated into 1 mL MHBII medium and propagated at 37 °C, 250 rpm overnight. In the cases of Enterococcus and Streptococcus sp., cells were plated to BHI agar plates, and BHI broth was used to determine MICs. […] Following dilutions, each well was seeded with 5×10^4 bacterial cells. All measurements were performed in 3 parallel replicates and to avoid possible edge effects in microwell plates, side rows (A and H) were filled with sterile medium. Following inoculations, plates were covered with lids and wrapped in polyethylene plastic bags to minimize evaporation but allow for O2 transfer. Plates were incubated at 37 °C under continuous shaking at 150 rpm for 18 hours. After incubation, OD600 of each well was measured using a BioTek Synergy 2 microplate reader.
# [3] = tested on: CHO-K1 cells; type: cell-based, hamster; details: for % Micronucleated cells / Micronucleus Test Result: 4 hours, CHO-K1
# Experimental: Genetic toxicity analysis of compounds was performed in an in vitro micronucleus test, according to the protocol described in Diaz and colleagues (2007), at Eurofins Panlabs (St. Charles, MO, US). Micronucleated cells and micronuclei were enumerated by the use of high-content fluorescent cell imaging. The assay was performed on CHO-K1 cells. […] Experiments were performed in 2 biological replicates. All cell lines were tested as being negative for Mycoplasma contamination.
# [4] = molecular target: T1, S. aureus topoisomerase IV (Staphylococcus aureus, UniProt P0C1S7); assay: S. aureus topoisomerase IV gel-based assay; type: biochemical; details: quadruplicates
# T1 construct: purchased Inspiralis Ltd., Norwich, UK
# [5] = tested on: S. aureus ATCC 700699 and S. aureus ATCC 43300; assay: Spontaneous frequency-of-resistance assay; type: cell-based
# Experimental: Prior to plating, bacteria were grown overnight in MHBII medium at 37 °C, 250 rpm, collected by centrifugation, and washed once in equal volumes of MHBII broth. From this concentrated cell suspension (250 μL), approximately 10^10 cells were then plated to each MHBII agarose plates. […] All experiments were performed in at least 3 replicates. Plates were grown at 37 °C for 72 hours. Total CFUs were determined simultaneously in each experiment by plating appropriate dilutions to antibiotic-free MHBII agar plates. Finally, resistance frequencies for each strain were calculated by dividing the number of colonies formed after a 72-hour incubation at 37 °C by the initial viable cell count.
# [6] = tested on: S. aureus; assay: pH-dependent MIC determination; type: cell-based; details: Staphylococcus aureus
# Experimental: as §1
# [7] = tested on: human hERG potassium ion channel
# Experimental: Inhibition of the human hERG cardiac K+ ion channel was determined by Eurofins Panlabs (St. Charles, MO, USA) by using QPatch automated whole-cell patch-clamp electrophysiology, as described previously. […] During measurements, after whole-cell patch configuration was achieved, the cells were held at −80 mV. Next, a 500-millisecond pulse to −40 mV was delivered to measure the leaking current, which was then subtracted from the tail current’s readout. Then the cell was depolarized to +40 mV for 500 milliseconds and then to −80 mV over a 100-millisecond ramp to elicit the hERG tail current. This workflow was repeated once in every 8 seconds to monitor the current amplitude. The parameters measured during each test were the maximum tail current evoked on stepping to 40 mV and ramping back to −80 mV from the test pulse. All data were filtered for seal quality, seal drop, and current amplitude. The peak current amplitude was calculated before and after compound addition, and the amount of inhibition was assessed by dividing the test compound’s current amplitude by the control’s current amplitude. During our tests, the control was the mean hERG current amplitude collected 15 seconds at the end of each measurement, and the test compound was the mean hERG current amplitude collected in the presence of test compound at the given concentration.
# [8] = tested on: S. aureus ATCC 700699 VISA; assay: Time-dependent killing; type: cell-based; details: for Time-kill bacterial count: 10xMIC; for Colony numbers: time-kill raw counts, Samples 1-3
# Experimental: Time-dependent killing experiments were performed as previously. S. aureus ATCC 700699 VISA cells were inoculated to MHBII agar plates and grown overnight at 37 °C. Next, 3 independent stationer-phase starter cultures were grown at 37 °C, 250 rpm overnight, in 3 × 1 mL MHBII broth. Next, 100-fold diluted cultures were prepared from each in 20 mL fresh MHBII medium and grown at 37 °C, 250 rpm until early exponential phase (OD600 = 0.3–0.4; i.e., 5 × 10^5 cells/mL). […] Cells were treated with antibiotics in Erlenmeyer flasks at 37 °C, 150 rpm for 48 hours. […] Next, 50 μL from each dilution were plated on MHBII agar plates, and plates were incubated overnight at 37 °C to calculate CFU per mL.
# [9] = tested on: novobiocin-resistant S. aureus VISA ATCC 700699 mutants; assay: MIC against novobiocin-resistant (novobiocin-adapted) strains; type: cell-based; details: for MIC: Staphylococcus aureus
# Experimental: as §1
# T1 sequence (P0C1S7 whole entry): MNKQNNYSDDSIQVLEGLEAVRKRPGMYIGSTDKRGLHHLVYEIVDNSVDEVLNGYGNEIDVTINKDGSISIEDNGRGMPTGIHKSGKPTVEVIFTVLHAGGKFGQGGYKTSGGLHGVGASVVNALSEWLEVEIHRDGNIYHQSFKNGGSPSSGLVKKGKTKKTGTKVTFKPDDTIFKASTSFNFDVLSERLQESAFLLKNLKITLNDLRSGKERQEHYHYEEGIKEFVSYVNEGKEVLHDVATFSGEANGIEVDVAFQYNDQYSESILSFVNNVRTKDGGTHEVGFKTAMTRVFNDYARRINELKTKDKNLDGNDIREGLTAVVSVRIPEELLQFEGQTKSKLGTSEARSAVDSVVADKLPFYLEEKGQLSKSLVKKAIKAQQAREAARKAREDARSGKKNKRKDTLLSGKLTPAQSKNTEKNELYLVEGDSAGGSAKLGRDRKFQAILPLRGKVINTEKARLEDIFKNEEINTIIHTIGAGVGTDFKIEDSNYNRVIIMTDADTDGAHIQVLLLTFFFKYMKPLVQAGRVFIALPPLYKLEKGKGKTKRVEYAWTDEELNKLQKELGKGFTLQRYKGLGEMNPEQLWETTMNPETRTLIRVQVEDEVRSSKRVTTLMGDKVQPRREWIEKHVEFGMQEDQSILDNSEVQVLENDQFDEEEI
# T1 sequence (P0C1U9 whole entry, further chain): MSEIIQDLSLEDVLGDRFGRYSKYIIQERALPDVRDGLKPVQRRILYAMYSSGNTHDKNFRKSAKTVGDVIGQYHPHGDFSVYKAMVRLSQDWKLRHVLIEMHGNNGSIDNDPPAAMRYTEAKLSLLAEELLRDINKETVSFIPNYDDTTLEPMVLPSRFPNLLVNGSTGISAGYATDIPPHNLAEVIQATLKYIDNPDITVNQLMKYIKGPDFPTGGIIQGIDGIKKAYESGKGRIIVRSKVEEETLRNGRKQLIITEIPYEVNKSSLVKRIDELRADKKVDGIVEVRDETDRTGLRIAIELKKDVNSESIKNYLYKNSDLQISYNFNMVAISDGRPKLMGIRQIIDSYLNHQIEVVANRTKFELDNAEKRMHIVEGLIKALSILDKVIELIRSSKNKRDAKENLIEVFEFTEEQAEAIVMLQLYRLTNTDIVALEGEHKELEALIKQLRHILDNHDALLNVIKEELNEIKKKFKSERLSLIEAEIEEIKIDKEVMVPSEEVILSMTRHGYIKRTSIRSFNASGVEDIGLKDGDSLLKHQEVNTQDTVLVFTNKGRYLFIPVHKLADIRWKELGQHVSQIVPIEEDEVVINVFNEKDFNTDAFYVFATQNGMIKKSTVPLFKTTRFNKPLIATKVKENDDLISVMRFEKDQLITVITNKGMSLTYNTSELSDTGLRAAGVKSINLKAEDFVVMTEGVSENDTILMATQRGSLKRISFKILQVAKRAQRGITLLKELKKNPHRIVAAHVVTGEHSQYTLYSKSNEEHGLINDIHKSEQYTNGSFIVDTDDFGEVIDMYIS
smiles,measurement,setting,value
Cc1[nH]c(C(=O)Nc2nc3ccc(C(=O)O)cc3s2)c(Cl)c1Cl [ULD1],Max. % inhibition at 100 µM,[1],Max. % inhibition at 100 µM: 1.53%
same,MIC,"[2]; Clostridioides difficile, BAA1875",≤ 0.0312 µg/mL
same,MIC,[2]; Clostridium difficile BAA-1875,< 0.0312 µg/mL
same,% Micronucleated cells,[3]; 1.3 x 10^-4 M,0.32%
same,Micronucleus Test Result,[3]; 1.3 x 10^-4 M,- (A negative test (-) result indicates P > 0.05 by t-test and percentage of micronucleated cells less than 2-fold higher than the background level)
same,% Micronucleated cells,[3]; 2.5 x 10^-4 M,0.56%
same,Micronucleus Test Result,[3]; 2.5 x 10^-4 M,- (A negative test (-) result indicates P > 0.05 by t-test and percentage of micronucleated cells less than 2-fold higher than the background level)
same,% Micronucleated cells,[3]; 3.1 x 10^-5 M,0.47%
same,Micronucleus Test Result,[3]; 3.1 x 10^-5 M,- (A negative test (-) result indicates P > 0.05 by t-test and percentage of micronucleated cells less than 2-fold higher than the background level)
same,% Micronucleated cells,[3]; 5.0 x 10^-4 M,0.57%
same,Micronucleus Test Result,[3]; 5.0 x 10^-4 M,- (A negative test (-) result indicates P > 0.05 by t-test and percentage of micronucleated cells less than 2-fold higher than the background level)
same,% Micronucleated cells,[3]; 6.2 x 10^-5 M,0.36%
same,Micronucleus Test Result,[3]; 6.2 x 10^-5 M,- (A negative test (-) result indicates P > 0.05 by t-test and percentage of micronucleated cells less than 2-fold higher than the background level)
same,genetic toxicity,"[3]; CHO-K1 micronucleus assay, in words",No genetic toxicity
same,IC50,[4],9.3 ± 2.2 nM
same,mutant prevention concentration (MPC),"[5]; S. aureus ATCC 700699 (VISA), estimate",0.16 µg/mL
same,Spontaneous frequency-of-resistance (replicates),"[5]; Staphylococcus aureus (MRSA) ATCC 43300, 2xMIC",2e-9 and 2.769e-9 and 5.333e-10 and 1.1e-9 and 1.263e-9 and 2.587e-9 and 2.787e-9 and 2.50E-09 and 3.14E-09 and 4.80E-09
same,Spontaneous frequency-of-resistance (replicates),"[5]; Staphylococcus aureus (MRSA) ATCC 43300, 4xMIC",9.286e-10 and 7.692e-10 and 1.333e-10 and 5e-10 and 9.868e-10 and 1.045e-9 and 7.377e-10 and 1.30E-09 and 9.54E-10 and 1.09E-08 and 7.14E-11
same,Spontaneous frequency-of-resistance (replicates),"[5]; Staphylococcus aureus (MRSA) ATCC 43300, 8xMIC",1.00E-12
same,Spontaneous frequency-of-resistance (replicates),"[5]; Staphylococcus aureus (VISA) ATCC 700699, 2xMIC",2.06e-9 and 1.815e-9 and 2.326e-9 and 1.86e-9 and 1.40E-09 and 7.33E-10 and 2.00E-09 and 1.64E-09 and 3.594e-9 and 2.426e-9
same,Spontaneous frequency-of-resistance (replicates),"[5]; Staphylococcus aureus (VISA) ATCC 700699, 4xMIC",1.00E-12 and 3.109e-10 and 2.252e-10 and 3.243e-10 and 3.9801e-10 and 2.304e-10 and 2.871e-10 and 1.676e-10
same,Spontaneous frequency-of-resistance (replicates),"[5]; Staphylococcus aureus (VISA) ATCC 700699, 8xMIC",1.00E-12
same,resistant variants detected,"[5]; exposure at 8-fold the wild-type MIC, S. aureus, in words",no resistant variants of S. aureus have been detected
same,MIC,"[6]; S. aureus ATCC 43300 (MRSA), pH 5.5",0.004 µg/mL
same,MIC,"[6]; S. aureus ATCC 43300 (MRSA), pH 7.3",0.1 µg/mL
same,MIC,"[6]; S. aureus ATCC 700699 (VISA), pH 5.5",0.00025 µg/mL
same,MIC,"[6]; S. aureus ATCC 700699 (VISA), pH 7.3",0.04 µg/mL
same,inhibitory effect on human hERG ion channels,"[7]; 150 μM, in words",No statistically significant inhibitory effect
same,Significant (hERG inhibition),"[7]; hERG, 150 µM",No (Only results showing an inhibition higher than 50% are considered to represent significant effects of the tested compounds)
same,Normalized inhibition (%),"[7]; hERG, 150 µM, n = 8",5.5%
same,Time-kill bacterial count,[8]; time 0 hour,2.80E+05
same,Time-kill bacterial count,[8]; time 3 hour,9.80E+04
same,Time-kill bacterial count,[8]; time 6 hour,6.30E+04
same,Time-kill bacterial count,[8]; time 12 hour,4.90E+03
same,Time-kill bacterial count,[8]; time 18 hour,1.70E+03
same,Time-kill bacterial count,[8]; time 24 hour,8.50E+02
same,Time-kill bacterial count,[8]; time 48 hour,1.60E+02
same,cell killing (bactericidal) activity,"[8]; 10× MIC, S. aureus ATCC 700699 (VISA), in words",exceed that of fusidic acid
same,Colony numbers,"[8]; time 0 h, Dilution 100",145 and 132 and 137
same,Colony numbers,"[8]; time 3 h, Dilution 100",54 and 53 and 40
same,Colony numbers,"[8]; time 6 h, Dilution 100",38 and 20 and 36
same,Colony numbers,"[8]; time 12 h, Dilution 10",20 and 23 and 31
same,Colony numbers,"[8]; time 18 h, Dilution 1",83 and 63 and 113
same,Colony numbers,"[8]; time 24 h, Dilution 0.5",65 and 80 and 110
same,decrease in susceptibility compared with wild-type strain,[9]; 9 independently evolved novobiocin-resistant isolates,up to 6 fold
same,MIC,"[9]; WT S. aureus VISA ATCC 700699, read-out: MIC",0.04 µg/mL
same,MIC,[9]; novobiocin-adapted Evolved 1,0.016 µg/mL
same,MIC,[9]; novobiocin-adapted Evolved 2,0.125 µg/mL
same,MIC,[9]; novobiocin-adapted Evolved 3,0.016 µg/mL
same,MIC,[9]; novobiocin-adapted Evolved 4,0.25 µg/mL
same,MIC,[9]; novobiocin-adapted Evolved 5,0.063 µg/mL
same,MIC,[9]; novobiocin-adapted Evolved 6,0.063 µg/mL
same,MIC,[9]; novobiocin-adapted Evolved 7,0.125 µg/mL
same,MIC,[9]; novobiocin-adapted Evolved 8,0.125 µg/mL
same,MIC,[9]; novobiocin-adapted Evolved 9,0.016 µg/mL
